Measured values reported in ChEMBL document CHEMBL6109056, “Disrupted target binding with acryloyl group as potential Bcr-Abl/C-Src dual kinase inhibitor optimization strategies with maintained antitumor activity” (Bioorg Med Chem Lett, 2025).

Tests used:
Bcr/Abl fusion protein = Bcr/Abl fusion protein (Homo sapiens, UniProt P00519); assay: Inhibition of wild-type Bcr-Abl (unknown origin) in presence of ATP; assay type: protein assay
[1] = Inhibition of C-Src (unknown origin) in presence of ATP; set-up: species or system Homo sapiens
K562 [2] = assay: Cytotoxicity against human K562 cells assessed as growth inhibition incubated for 72 hrs by MTT assay; assay type: functional, cell-based; conditions: K562, 72 h
MCF7 [3] = assay: Cytotoxicity against human MCF7 cells assessed as growth inhibition at 10 uM incubated for 72 hrs by MTT assay relative to control; assay type: functional
A549 [4] = assay: Cytotoxicity against human A549 cells assessed as growth inhibition at 10 uM incubated for 72 hrs by MTT assay relative to control; assay type: functional
MCF7 [5] = assay: Cytotoxicity against human MCF7 cells assessed as growth inhibition incubated for 72 hrs by MTT assay; assay type: functional, cell-based; conditions: MCF7, 72 h
A549 [6] = assay: Cytotoxicity against human A549 cells assessed as growth inhibition incubated for 72 hrs by MTT assay; assay type: functional, cell-based; conditions: A549, 72 h
K562 [7] = assay: Cytotoxicity against human K562 cells assessed as growth inhibition at 10 uM incubated for 72 hrs by MTT assay relative to control; assay type: functional
HCT-116 [8] = assay: Cytotoxicity against human HCT-116 cells assessed as growth inhibition incubated for 72 hrs by MTT assay; assay type: functional, cell-based; conditions: HCT-116, 72 h
[9] = biological target: Bcr/Abl fusion protein (Homo sapiens) (UniProt P00519+P11274); assay: Inhibition of wild-type Bcr-Abl (unknown origin) at 10 uM in presence of ATP relative to control; assay type: protein assay
Homo sapiens = organism: Homo sapiens; assay: Inhibition of C-Src (unknown origin) at 10 uM in presence of ATP relative to control
HCT-116 [10] = assay: Cytotoxicity against human HCT-116 cells assessed as growth inhibition at 10 uM incubated for 72 hrs by MTT assay relative to control; assay type: functional

Bcr/Abl fusion protein, sequence (P00519 whole entry, the tested form may be a part): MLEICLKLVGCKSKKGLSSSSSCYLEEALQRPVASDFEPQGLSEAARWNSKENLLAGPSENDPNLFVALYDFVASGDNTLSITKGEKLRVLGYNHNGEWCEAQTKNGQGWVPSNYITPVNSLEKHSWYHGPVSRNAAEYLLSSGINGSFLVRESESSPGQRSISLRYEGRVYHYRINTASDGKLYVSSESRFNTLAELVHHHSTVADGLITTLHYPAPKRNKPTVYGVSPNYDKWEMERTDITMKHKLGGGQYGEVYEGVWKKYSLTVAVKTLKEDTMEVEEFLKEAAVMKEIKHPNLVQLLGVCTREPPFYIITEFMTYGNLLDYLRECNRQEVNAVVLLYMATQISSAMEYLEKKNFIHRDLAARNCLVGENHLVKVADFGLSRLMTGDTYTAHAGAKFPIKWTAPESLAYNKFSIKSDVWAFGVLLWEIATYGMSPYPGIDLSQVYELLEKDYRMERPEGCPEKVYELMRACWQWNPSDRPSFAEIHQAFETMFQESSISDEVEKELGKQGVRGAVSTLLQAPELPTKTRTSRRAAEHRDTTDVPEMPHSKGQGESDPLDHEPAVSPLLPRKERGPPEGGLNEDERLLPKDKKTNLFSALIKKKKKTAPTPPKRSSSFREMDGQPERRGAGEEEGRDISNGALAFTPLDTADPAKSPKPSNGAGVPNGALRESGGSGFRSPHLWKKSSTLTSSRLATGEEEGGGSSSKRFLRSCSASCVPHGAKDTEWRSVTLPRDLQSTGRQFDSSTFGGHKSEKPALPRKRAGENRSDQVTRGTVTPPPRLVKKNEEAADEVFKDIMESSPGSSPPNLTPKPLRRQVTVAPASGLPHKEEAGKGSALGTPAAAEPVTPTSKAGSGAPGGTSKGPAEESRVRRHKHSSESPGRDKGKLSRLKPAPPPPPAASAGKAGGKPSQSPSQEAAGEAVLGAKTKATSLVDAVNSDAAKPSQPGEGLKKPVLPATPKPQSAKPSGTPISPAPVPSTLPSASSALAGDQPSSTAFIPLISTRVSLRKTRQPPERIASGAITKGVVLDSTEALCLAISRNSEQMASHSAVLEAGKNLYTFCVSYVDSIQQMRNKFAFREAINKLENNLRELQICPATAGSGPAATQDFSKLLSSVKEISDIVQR
Bcr/Abl fusion protein, sequence (P11274 whole entry, further chain, the tested form may be a part): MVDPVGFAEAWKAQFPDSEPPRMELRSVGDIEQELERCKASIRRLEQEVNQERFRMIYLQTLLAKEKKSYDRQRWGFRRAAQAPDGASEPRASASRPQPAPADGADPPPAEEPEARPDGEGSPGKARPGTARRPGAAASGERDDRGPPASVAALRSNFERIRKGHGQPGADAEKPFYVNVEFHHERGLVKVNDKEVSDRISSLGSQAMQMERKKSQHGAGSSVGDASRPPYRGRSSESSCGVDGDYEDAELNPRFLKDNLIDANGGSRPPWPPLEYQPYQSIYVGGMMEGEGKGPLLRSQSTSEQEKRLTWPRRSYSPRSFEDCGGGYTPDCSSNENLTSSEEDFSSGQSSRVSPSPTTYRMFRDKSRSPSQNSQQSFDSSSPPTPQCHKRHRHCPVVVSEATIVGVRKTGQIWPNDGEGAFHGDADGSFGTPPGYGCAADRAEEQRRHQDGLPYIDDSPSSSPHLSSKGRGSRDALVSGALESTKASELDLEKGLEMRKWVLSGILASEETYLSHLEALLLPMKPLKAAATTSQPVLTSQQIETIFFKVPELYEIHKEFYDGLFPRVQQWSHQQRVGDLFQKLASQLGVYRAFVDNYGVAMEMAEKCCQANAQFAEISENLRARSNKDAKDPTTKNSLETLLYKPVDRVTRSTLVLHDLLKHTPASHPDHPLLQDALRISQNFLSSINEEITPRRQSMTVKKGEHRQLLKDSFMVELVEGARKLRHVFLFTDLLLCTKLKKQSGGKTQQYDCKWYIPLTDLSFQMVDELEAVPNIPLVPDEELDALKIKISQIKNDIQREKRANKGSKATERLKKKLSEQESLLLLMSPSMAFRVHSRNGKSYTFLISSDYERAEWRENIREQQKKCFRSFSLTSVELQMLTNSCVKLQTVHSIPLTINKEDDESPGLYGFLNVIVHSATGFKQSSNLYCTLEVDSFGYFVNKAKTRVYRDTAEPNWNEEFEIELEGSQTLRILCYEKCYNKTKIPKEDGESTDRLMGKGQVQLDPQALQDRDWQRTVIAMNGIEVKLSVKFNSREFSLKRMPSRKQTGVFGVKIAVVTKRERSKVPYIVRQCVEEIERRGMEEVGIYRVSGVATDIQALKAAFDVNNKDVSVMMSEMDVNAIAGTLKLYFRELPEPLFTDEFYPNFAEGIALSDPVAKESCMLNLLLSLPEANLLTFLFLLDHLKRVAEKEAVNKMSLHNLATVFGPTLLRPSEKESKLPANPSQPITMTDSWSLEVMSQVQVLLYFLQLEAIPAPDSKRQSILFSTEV
Bcr/Abl fusion protein (Homo sapiens), sequence (P00519 whole entry, looked up, the tested form may be a part): as the sequence (P00519 whole entry, the tested form may be a part) above
Bcr/Abl fusion protein (Homo sapiens), sequence (P11274 whole entry, looked up, the tested form may be a part): as the sequence (P11274 whole entry, further chain, the tested form may be a part) above

SMILES | IC50 (Bcr/Abl fusion protein) [nM] | IC50 [1] [nM] | EC50 (K562 [2]) [nM] | EC50 (A549 [6]) [nM] | other results
C=CC(=O)N(c1ccc(Cl)cc1Cl)c1c(C#N)cnc2cc(OC)c(OC)cc12 | 1330 | 2080 |  |  | 
C=CC(=O)N(c1cc(OC)ccc1Cl)c1c(C#N)cnc2cc(OCCCN3CCN(C)CC3)c(OC)cc12 | 186 | 484 | 9830 |  | inhibition at 10 µM (MCF7 [3]): 40%; inhibition at 10 µM (A549 [4]): 32%
COc1cc(Nc2c(C#N)cnc3cc(OCCCN4CCOCC4)c(OC)cc23)c(Cl)cc1Cl | 0.42 | 0.27 | 6430 | 7400 | EC50 (MCF7 [5]): 8670 nM
COc1ccc(Cl)c(Nc2c(C#N)cnc3cc(OCCCN4CCN(C)CC4)c(OC)cc23)c1 | 0.06 | 0.23 |  | 4510 | inhibition at 10 µM (K562 [7]): 46%; EC50 (MCF7 [5]): 4490 nM
COc1cc(Nc2c(C#N)cnc3cc(OCCCN4CCCCC4)c(OC)cc23)c(Cl)cc1Cl | 0.14 | 0.11 | 7330 | 8560 | EC50 (HCT-116 [8]): 7990 nM
C=CC(=O)N(c1cc(OC)c(Cl)cc1Cl)c1c(C#N)cnc2cc(OCCCN3CCN(C)CC3)c(OC)cc12 | 56.2 | 101 | 1060 | 1440 | EC50 (HCT-116 [8]): 4860 nM
COc1cc(Nc2c(C#N)cnc3cc(OCCCN4CCN(C)CC4)c(OC)cc23)c(Cl)cc1Cl [BOSUTINIB] |  | 0.14 | 690 | 970 | EC50 (HCT-116 [8]): 3420 nM
COc1ccc(Cl)c(Nc2c(C#N)cnc3cc(OC)c(OC)cc23)c1 | 0.64 | 0.89 |  |  | 
C=CC(=O)N(c1cc(OC)c(Cl)cc1Cl)c1c(C#N)cnc2cc(OC)c(OC)cc12 | 893 | 863 |  |  | 
COc1cc(Nc2c(C#N)cnc3cc(OC)c(OC)cc23)c(Cl)cc1Cl | 0.76 | 0.77 |  |  | 
COc1cc2ncc(C#N)c(Nc3ccc(Br)cc3Br)c2cc1OC | 5430 | 2440 |  |  | 
C=CC(=O)N(c1cc(OC)c(Cl)cc1Cl)c1c(C#N)cnc2cc(OCCCN3CCOCC3)c(OC)cc12 | 169 | 110 | 6390 | 4170 | EC50 (MCF7 [5]): 7850 nM
COc1ccc(Cl)c(Nc2c(C#N)cnc3cc(OCCCN4CCOCC4)c(OC)cc23)c1 | 0.23 | 0.33 | 1190 | 7150 | EC50 (MCF7 [5]): 9340 nM
COc1ccc(Cl)c(Nc2c(C#N)cnc3cc(OCCCN4CCCCC4)c(OC)cc23)c1 | 0.3 | 0.35 | 8070 | 7870 | inhibition at 10 µM (MCF7 [3]): 29%
COc1cc2ncc(C#N)c(Nc3ccc(Cl)cc3Cl)c2cc1OC | 4.38 | 4.67 |  |  | 
COc1cc2ncc(C#N)c(Nc3ccccc3)c2cc1OC |  |  |  |  | inhibition [9]: 98.7%; inhibition (Homo sapiens): 96.5%
C=CC(=O)N(c1ccccc1)c1c(C#N)cnc2cc(OC)c(OC)cc12 |  |  |  |  | inhibition [9]: 7.1%; inhibition (Homo sapiens): 9.5%
C=CC(=O)N(c1cc(OC)ccc1Cl)c1c(C#N)cnc2cc(OCCCN3CCCCC3)c(OC)cc12 | 112 | 132 | 9760 | 8900 | EC50 (MCF7 [5]): 9450 nM
C=CC(=O)N(c1ccc(Br)cc1Br)c1c(C#N)cnc2cc(OC)c(OC)cc12 | > 10000 | 8520 |  |  | 
C=CC(=O)N(c1cc(OC)ccc1Cl)c1c(C#N)cnc2cc(OC)c(OC)cc12 | 569 | 1840 |  |  | 
C=CC(=O)N(c1cc(OC)ccc1Cl)c1c(C#N)cnc2cc(OCCCN3CCOCC3)c(OC)cc12 | 193 | 207 |  |  | inhibition at 10 µM (K562 [7]): 40%; inhibition at 10 µM (MCF7 [3]): 25%; inhibition at 10 µM (A549 [4]): 31%
C=CC(=O)N(c1cc(OC)c(Cl)cc1Cl)c1c(C#N)cnc2cc(OCCCN3CCCCC3)c(OC)cc12 | 214 | 169 | 3190 | 5500 | EC50 (HCT-116 [8]): 6380 nM
COc1cc(N(C(C)=O)c2c(C#N)cnc3cc(OCCCN4CCCCC4)c(OC)cc23)c(Cl)cc1Cl | 1100 | 770 |  |  | inhibition at 10 µM (K562 [7]): 31%; inhibition at 10 µM (MCF7 [3]): 34%; inhibition at 10 µM (HCT-116 [10]): 34%; inhibition at 10 µM (A549 [4]): 28%
